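96-well plates; 48 h exposure; 5 concentrations. Endpoints by linear interpolation between flanking doses. Not reached: highest tested concentration assigned. Here, GI50 denotes the concentration required for 50% inhibition of growth.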 Activity calls are given as the source filed them. Cut-off read from the data, not from the text of the source: active = GI50 up to about 1.1 µM and inactive = higher.
What was measured:
Test in all cases: NCI-60 cell line screen, 48 h
A549 = system: A549
HOP-62 = system: HOP-62
RXF 393 = system: RXF 393
LOX IMVI = system: LOX IMVI
K562 = system: K562
NCI-H226 = system: NCI-H226
COLO 205 = system: COLO 205
KM12 = system: KM12
SNB-75 = system: SNB-75
HCC 2998 = system: HCC 2998
SR = system: SR
SNB-19 = system: SNB-19
MCF7 = system: MCF7
UACC-62 = system: UACC-62
NCI/ADR-RES = system: NCI/ADR-RES
RPMI-8226 = system: RPMI-8226
U-251 = system: U-251
OVCAR-4 = system: OVCAR-4
SF-295 = system: SF-295
UO-31 = system: UO-31

Row | Compound | GI50 (A549) | GI50 (HOP-62) | GI50 (RXF 393) | GI50 (LOX IMVI) | GI50 (K562) | GI50 (NCI-H226) | GI50 (COLO 205) | GI50 (KM12) | GI50 (SNB-75) | GI50 (HCC 2998) | GI50 (SR) | GI50 (SNB-19) | GI50 (MCF7) | GI50 (UACC-62) | GI50 (NCI/ADR-RES) | GI50 (RPMI-8226) | GI50 (U-251) | GI50 (OVCAR-4) | GI50 (SF-295) | GI50 (UO-31)
1 | COc1ccc(/C(Cl)=C(\C=O)c2ccc(OC)c(OC)c2)cc1OC | > 100 µM (inactive) | > 84.7 µM (inactive) | 37.2 µM (inactive) | 33.7 µM (inactive) | > 100 µM (inactive) | 91.6 µM (inactive) | > 100 µM (inactive) | 32.5 µM (inactive) | 22.9 µM (inactive) | > 97.1 µM (inactive) | > 100 µM (inactive) | > 100 µM (inactive) | 56.8 µM (inactive) | > 100 µM (inactive) | > 91.4 µM (inactive) | 70.3 µM (inactive) | > 100 µM (inactive) | 63.8 µM (inactive) | 30.1 µM (inactive) | > 100 µM (inactive)
2 | CCCC(=O)OCC1OC(n2cc(F)c(=O)[nH]c2=O)CC1O (stereo not given) | 0.0489 µM (active) | 0.0553 µM (active) | > 10 µM (inactive) | 0.0303 µM (active) | 1.87 µM (inactive) | > 7.57 µM (inactive) | 2.22 µM (inactive) | > 10 µM (inactive) | 0.0871 µM (active) | 0.00381 µM (active) | 0.0265 µM (active) | > 10 µM (inactive) | 0.00463 µM (active) | 0.126 µM (active) | 1.7 µM (inactive) | 0.429 µM (active) | 1.79 µM (inactive) | > 10 µM (inactive) | 0.0731 µM (active) | 0.094 µM (active)
3 | CN(NC(=O)c1ccco1)C1=NCCCCN1 | > 100 µM (inactive) | > 100 µM (inactive) | > 100 µM (inactive) | > 100 µM (inactive) | > 100 µM (inactive) | > 100 µM (inactive) | > 100 µM (inactive) | > 100 µM (inactive) | > 100 µM (inactive) | > 100 µM (inactive) | > 100 µM (inactive) | > 100 µM (inactive) | > 100 µM (inactive) | > 100 µM (inactive) | > 100 µM (inactive) | > 100 µM (inactive) | > 100 µM (inactive) | > 100 µM (inactive) | > 100 µM (inactive) | > 100 µM (inactive)
4 | COc1cc2c3c(n(Cc4ccccc4)c(=O)c2cc1OC)-c1ccccc1C3=O | > 100 µM (inactive) | > 100 µM (inactive) | > 100 µM (inactive) | > 100 µM (inactive) | > 100 µM (inactive) | > 100 µM (inactive) | > 100 µM (inactive) | > 100 µM (inactive) | 32.3 µM (inactive) | > 100 µM (inactive) | 4.1 µM (inactive) | > 100 µM (inactive) | > 100 µM (inactive) | > 100 µM (inactive) | > 100 µM (inactive) | > 100 µM (inactive) | 64 µM (inactive) | > 100 µM (inactive) | > 100 µM (inactive) | > 100 µM (inactive)
5 | O=[N+]([O-])C(=C(Sc1ccccc1)Sc1ccccc1)C(Cl)=C(Cl)Cl | 2.22 µM (inactive) | 1.91 µM (inactive) | 0.413 µM (active) | 0.177 µM (active) | 0.0923 µM (active) | 0.614 µM (active) | 0.157 µM (active) | 2.44 µM (inactive) | 4.54 µM (inactive) | 2.39 µM (inactive) | 0.0975 µM (active) | 10.6 µM (inactive) | 0.21 µM (active) | 0.75 µM (active) | 0.652 µM (active) | 0.0292 µM (active) | 1.53 µM (inactive) | 0.401 µM (active) | 11.9 µM (inactive) | 0.171 µM (active)
6 | C=CCN(C(C)=O)c1cc(OCc2ccccc2)c2c(c1)c(C)cn2S(=O)(=O)c1ccccc1 | 4.06 µM (inactive) | 11.5 µM (inactive) | 4.74 µM (inactive) | 5.07 µM (inactive) | 2.83 µM (inactive) | 7.29 µM (inactive) | 3.78 µM (inactive) | 3.85 µM (inactive) | 6.18 µM (inactive) | 22.1 µM (inactive) | 0.0566 µM (active) | 7.08 µM (inactive) | 3.93 µM (inactive) | 7.1 µM (inactive) | 4.95 µM (inactive) | 2.47 µM (inactive) | 4.98 µM (inactive) | 5.42 µM (inactive) | 3.94 µM (inactive) | 2.86 µM (inactive)
7 | O=C1C(Br)=CC2(C=C1Br)CCNC1=C2C(=O)c2cccnc2C1=O | 14.8 µM (inactive) | 8.93 µM (inactive) | 4.92 µM (inactive) | 5.48 µM (inactive) | 2.44 µM (inactive) | 16.6 µM (inactive) | 16.4 µM (inactive) | 16.1 µM (inactive) | 10.7 µM (inactive) | 18 µM (inactive) | 2.93 µM (inactive) | 7.23 µM (inactive) | 13.8 µM (inactive) | 3.89 µM (inactive) | 20.8 µM (inactive) | 8.93 µM (inactive) | 17.6 µM (inactive) | 17.2 µM (inactive) | 8.75 µM (inactive) | 17.5 µM (inactive)
8 | O=[N+]([O-])c1c2nc3n(c2cc2c1nc1n2CCC1)CCC3 | > 100 µM (inactive) | > 100 µM (inactive) | > 100 µM (inactive) | > 100 µM (inactive) | > 100 µM (inactive) | > 100 µM (inactive) | > 100 µM (inactive) | > 100 µM (inactive) | > 100 µM (inactive) | > 100 µM (inactive) | > 100 µM (inactive) | > 100 µM (inactive) | > 100 µM (inactive) | > 100 µM (inactive) | > 100 µM (inactive) | > 100 µM (inactive) | > 100 µM (inactive) | > 100 µM (inactive) | > 100 µM (inactive) | > 100 µM (inactive)
9 | C=C(C)C1CC=C(C)C2(C1)OCC(C)(C)C(C)O2 (stereo not given) | 17.3 µM (inactive) | 16.6 µM (inactive) | 13.7 µM (inactive) | 17.5 µM (inactive) | 18.5 µM (inactive) | 18.3 µM (inactive) | 18.1 µM (inactive) | 16.9 µM (inactive) | 22 µM (inactive) | 28.3 µM (inactive) | 18.2 µM (inactive) | 18.3 µM (inactive) | 17.1 µM (inactive) | 15.8 µM (inactive) | 17.9 µM (inactive) | 17.9 µM (inactive) | 16.7 µM (inactive) | 17.1 µM (inactive) | 19.5 µM (inactive) | 20.3 µM (inactive)
10 | C/C=C/[C@H]1O[C@@](O)([C@@H](C)[C@H](O)[C@H](C)[C@H]2OC(=O)/C(OC)=C/C(C)=C/[C@@H](C)[C@@H](O)[C@@H](CC)[C@@H](O)[C@H](C)C/C(C)=C/C=C/[C@@H]2OC)C[C@H](OC2CC(O)C(O)C(C)O2)[C@@H]1C (stereo not given in full) | < 0.0075 µM (active) | < 0.0075 µM (active) | 0.121 µM (active) | < 0.0075 µM (active) | < 0.0075 µM (active) | < 0.0075 µM (active) | < 0.0075 µM (active) | < 0.0075 µM (active) | 8.59 µM (inactive) | < 0.0075 µM (active) | < 0.0075 µM (active) | 3.42 µM (inactive) | < 0.0075 µM (active) | < 0.0075 µM (active) | < 0.0075 µM (active) | < 0.0075 µM (active) | < 0.0075 µM (active) | 0.244 µM (active) | < 0.0075 µM (active) | < 0.0075 µM (active)
11 | CCOc1ccc2ccc3cccnc3c2n1 | 61 µM (inactive) | 18.5 µM (inactive) | 68.9 µM (inactive) | 49.1 µM (inactive) | 31.9 µM (inactive) | 39 µM (inactive) | 28.7 µM (inactive) | 45.4 µM (inactive) | 85.9 µM (inactive) | 51.6 µM (inactive) | 18.9 µM (inactive) | > 100 µM (inactive) | 18.4 µM (inactive) | 27 µM (inactive) | 37.7 µM (inactive) | 23.2 µM (inactive) | 48.4 µM (inactive) | 69.2 µM (inactive) | 39.3 µM (inactive) | 64 µM (inactive)

Source: ChEMBL document CHEMBL1201862, “PubChem BioAssay data set” (2004)
